Measured values as given in ChEMBL document CHEMBL1153661, “Antiviral optically pure dioxolane purine nucleosides analogues” (Bioorg Med Chem Lett, 1993).

Legend:
MT4 [1] = experiment: Compound was tested for inhibitory activity against HIV in whole cell assay (MT-4, RF strain of HIV-1 at a concentration up to […]); IA: Found inactive; assay type: functional, cell-based, Homo sapiens
MT4 [2] = experiment: Compound was tested for cytotoxicity against MT-4 cells (MT-4, RF strain of HIV-1); Compound was found non cytotoxic; assay type: functional, cell-based; details: Homo sapiens
MT4 [3] = experiment: Compound was tested for inhibitory activity against HIV in whole cell assay (MT-4, RF strain of HIV-1 at a concentration up to […]); assay type: functional, cell-based; details: Homo sapiens
MT4 [4] = experiment: Compound was tested for cytotoxicity against MT-4 cells (MT-4, RF strain of HIV-1); assay type: functional; details: Homo sapiens, read-out: CD50 (the source's name)
[5] = Compound was tested for cytotoxicity against human peripheral blood mononuclear (PBM, LAV strain of HIV-l) cells; assay type: functional; details: read-out: CD50 (the source's name)
[6] = Compound was tested for inhibitory activity against HIV in human peripheral blood mononuclear (PBM, LAV strain of HIV-l) cells; assay type: functional, cell-based

For `Nc1nc(O)c2ncn([C@@H]3CO[C@H](CO)O3)c2n1`, the IC50 (MT4 [1]) was “Not Active” and the CD50 (MT4 [2]) was “Non-toxic”.

In the case of `Nc1nc2c(ncn2[C@H]2CO[C@@H](CO)O2)c(=O)[nH]1`, the IC50 (MT4 [3]) is reported as 10.7 µM, the CC50 (MT4 [4]) is reported as greater than 425 µM and the CC50 [5] is reported as greater than 100 µM. It also gave an IC50 [6] of 0.03 µM.
